From patent publication US20230279024A1, “TRIAZINE COMPOUND AND COMPOSITION AND USE THEREOF” (BEIJING FINDCURE BIOSCIENCES, LTD., priority 2020, published 2023)

Assays:
Ba/F3 AXL cells = assay: Cell activity test: growth inhibition of Ba/F3 AXL cell line (CTG, 72 h); format: cell-based; conditions: Mus musculus, BaF3
Protocol: This experiment was conducted by detecting the inhibitory effect of compounds on the growth of Ba/F3 AXL cell line and Ba/F3 parental cell line. Cells in logarithmic growth stage were harvested and counted by platelet counter. Trypan blue rejection method was used to detect cell viability to ensure that the cell viability was above 90%. Adjust cell concentration; 90 μL cell suspension was added to 96-well plates, respectively; Cells in 96-well plates were cultured overnight at 37° C., 5% CO2 and 95% humidity. A 10-fold drug solution was prepared, with the highest concentration of 10 μM, and a total of 9 concentrations were diluted at 3.16 times the ratio. 10 μL drug solution was added to each well of the 96-well plate inoculated with cells, and three wells were set for each drug concentration; 96-well plates were incubated at 37° C., 5% CO2 and 95% humidity for 72 h, and CTG analysis was performed. Thaw the CTG reagent and balance the cell plates to room temperature for 30 minutes. Add the same volume of CTG solution to each well and vibrate on a fixed-rail shaker for 5 minutes to crack the cells. Place the cell plates at room temperature for 20 minutes to stabilize the cold light signal and read the cold light value. The GraphPad Prism 5.0 software was used to analyze the data, and the nonlinear S-curve regression was used to fit the data to obtain the dose-effect curve, and the IC50 value was calculated accordingly. Cell survival rate (%)=(Lum drug to be tested −Lum culture medium control)/(Lum cell control−Lum culture medium control)×100%.

CYP2D6 = CYP2D6 (Homo sapiens (Human), UniProt P10635); assay: Inhibition of human liver microsomes CYP450, 2D6; format: in vitro ADME; conditions: compounds 10 μM (positive control: concentration not given)
CYP3A4/5 = assay: Inhibition of human liver microsomes CYP450, 3A4/5; format: in vitro ADME; conditions: compounds 10 μM (positive control: concentration not given)
AXL (h) kinase = AXL (h) kinase (Homo sapiens (Human), UniProt P30530); assay: AXL (h) kinase activity test (EZ Reader mobility shift, FLPeptide30); format: biochemical; conditions: ATP 100 μM, AXL 1 nM
Protocol: The effect of the disclosed compounds as protein kinase inhibitors can be evaluated by the following experiments. The AXL (h) kinase activity of the compounds of the invention is tested by the following methods:
Reagents used in the experiment were AXL (Carna Bioscience, Cat No.: 08-107) and FLPeptide30 (PerkinElmer, Cat No.: 760430). The instruments involved were thermotank (Thermo Scientific), oscillator (QILINBEIER), EZ Reader (PerkinElmer, Cat No.: 122919), Non-contact stage pipetting system (Labcyte Inc., Cat No.: Echo 550), and non-contact nanoliter pipetting system (TECAN, Cat No.: EVO200).
Compound dilution: 1) Dissolve the compound in DMSO to the appropriate concentration; 2) Using TECAN EVO200 to dilute 10 concentrations in 384 microplates by three times gradient, the highest concentration is 1 mM; Echo550 was used to transfer 20 nL solution from the dilution plate to the test plate.
2) Add 15 μL solution 1 to each well of the test plate and incubate at room temperature for 30 minutes.
4) Add 5 μL solution 2 to start the reaction, and the final volume of each well is 20 μL.
5) Incubated at 25° C. for 90 min, and then added 75 μL stop solution (containing 0.5 M EDTA) to terminate the reaction.
6) The sample of each well was analyzed using EZ reader.
1) Based on the measured conversion rate (CR), the Remaining Activity (%) of the kinase was calculated according to the following function:
2) XLFit (Equation 201) software was used to fit IC50.
The above methods can be used to obtain the inhibitory IC50 and/or inhibitory constant Ki.

CYP3A4 [1] = target: T1, CYP3A4 (Homo sapiens (Human), UniProt P08684); conditions: hepatocytes, 2 days, 10 μM
Protocol: (§1) Cryopreservation of human primary hepatocytes was resuscitated in medium after take out from liquid nitrogen. […] Plates were incubated at 37° C. and 5% CO2 for 4-6 hours to confirm the formation of monolayer cells attached to the wall. Then the adherent culture medium was changed into hepatocyte culture medium and the culture was continued overnight.
After the test compounds and positive control inducers were co-incubated with cells, the incubation medium was removed. […] After the samples were extracted and processed, the generation of metabolites and the kinase activities of CYP1A2, 2B6 and 3A4 was quantitatively detected by LC-MS/MS, respectively.
The induction of test substance on each subenzyme was determined by detecting the generation rate of metabolites of CYP450 subenzyme substrates. The relative activity of each subenzyme was expressed as a percentage of the relative blank control, and the data were calculated according to the following formula:
Fold of induction=sample subenzyme activity/blank subenzyme activity
Relative positive control activity (PC %)=(Fold of induction of sample group—Fold of induction of blank group)/(Fold of induction of positive control group—Fold of induction of blank group)×100

CYP3A4 [2] = target: T1, CYP3A4; conditions: hepatocytes, 2 days, 10 μM; remark: listed apart in the source
Protocol: as §1
After the test compound and positive control inducer were co-incubated with cells, the medium was removed and mercaptoethanol was added for cell lysis. Total RNA in cells was extracted with RNA extraction kit, and then transcribed into cDNA with cDNA reverse transcription kit. The 10 μL cDNA template was taken and analyzed on the fluorescence quantitative PCR instrument to obtain the Ct value.
The gene expression data were corrected by internal reference 18S, and the relative expression differences were determined by the method of ΔΔCt commonly used in fluorescence quantitative PCR.
The ΔCt, ΔΔCt and relative expression difference values of the target genes were calculated according to the following formula:
ΔCt=Ct value of target gene−Ct value of internal reference 18S
ΔΔCt=ΔCt of experimental group or positive control group−ΔCt of blank control group
Relative expression difference (fold of induction)=2−ΔΔ^Ct

CYP1A2 = CYP1A2 (Homo sapiens (Human), UniProt P05177); conditions: microsomes, 10 µM
Chain of CYP1A2 (P05177 whole entry): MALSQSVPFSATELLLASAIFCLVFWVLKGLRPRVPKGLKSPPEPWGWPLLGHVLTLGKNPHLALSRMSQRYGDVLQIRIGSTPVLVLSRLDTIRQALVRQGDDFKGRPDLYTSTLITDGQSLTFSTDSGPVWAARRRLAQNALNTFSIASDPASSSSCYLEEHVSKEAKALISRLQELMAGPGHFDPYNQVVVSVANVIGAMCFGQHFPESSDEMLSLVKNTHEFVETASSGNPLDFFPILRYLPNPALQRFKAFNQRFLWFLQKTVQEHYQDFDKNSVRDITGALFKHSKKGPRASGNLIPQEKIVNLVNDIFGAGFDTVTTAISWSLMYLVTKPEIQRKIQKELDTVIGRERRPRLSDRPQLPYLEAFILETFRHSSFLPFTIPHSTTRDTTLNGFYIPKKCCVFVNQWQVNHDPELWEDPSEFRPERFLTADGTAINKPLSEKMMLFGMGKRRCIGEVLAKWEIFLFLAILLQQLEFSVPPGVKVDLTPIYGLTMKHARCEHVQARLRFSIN

Chain of CYP2D6 (P10635 whole entry): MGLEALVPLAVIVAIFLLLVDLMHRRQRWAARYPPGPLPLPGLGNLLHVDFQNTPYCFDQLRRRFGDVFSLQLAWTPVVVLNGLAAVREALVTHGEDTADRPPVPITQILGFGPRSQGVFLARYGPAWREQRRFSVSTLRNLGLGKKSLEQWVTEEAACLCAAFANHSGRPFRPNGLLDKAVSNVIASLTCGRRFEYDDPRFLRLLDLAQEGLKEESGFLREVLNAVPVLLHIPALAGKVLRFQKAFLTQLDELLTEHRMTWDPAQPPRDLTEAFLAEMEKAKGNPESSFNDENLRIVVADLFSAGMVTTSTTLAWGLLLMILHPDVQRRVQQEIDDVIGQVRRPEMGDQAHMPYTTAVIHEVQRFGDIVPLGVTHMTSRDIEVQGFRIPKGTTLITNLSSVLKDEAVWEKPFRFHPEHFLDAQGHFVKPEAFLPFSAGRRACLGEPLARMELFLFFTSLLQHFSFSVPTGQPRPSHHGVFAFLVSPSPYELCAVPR
Chain of AXL (h) kinase (P30530 473-894): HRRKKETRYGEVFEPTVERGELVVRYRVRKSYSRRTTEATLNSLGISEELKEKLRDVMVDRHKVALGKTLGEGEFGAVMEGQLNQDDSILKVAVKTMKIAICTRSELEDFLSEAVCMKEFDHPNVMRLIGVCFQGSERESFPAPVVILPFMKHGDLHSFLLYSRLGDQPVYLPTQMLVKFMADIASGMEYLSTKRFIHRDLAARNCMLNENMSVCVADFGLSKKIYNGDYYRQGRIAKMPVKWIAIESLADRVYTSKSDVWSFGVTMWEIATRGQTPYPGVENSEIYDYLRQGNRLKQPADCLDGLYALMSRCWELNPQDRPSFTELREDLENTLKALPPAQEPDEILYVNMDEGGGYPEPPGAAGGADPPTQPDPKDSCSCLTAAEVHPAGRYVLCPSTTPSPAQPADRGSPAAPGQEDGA

Structure (SMILES)	IC50 (Ba/F3 AXL cells)	Inhibitory rate (%) 2D6 (CYP2D6)	Inhibitory rate (%) 3A4/5 (CYP3A4/5)	IC50 (AXL (h) kinase)	Enzymatic activity CYP3A4 Fold of induction (CYP3A4 [1])	Gene expression CYP3A4 Fold of induction (CYP3A4 [2])	Inhibitory rate (%) 1A2 (CYP1A2)
CC(C)C(=O)N1CCC(c2cc(-c3ccc(NC(=O)c4c5n(n(-c6ccccc6)c4=O)CCCC5)nc3)c3c(N)ncnn23)CC1 [example 11, N-(5-(4-amino-7-(1-isobutyrylpiperidin-4-yl)pyrrolo[2,1-f][1,2,4]triazin-5-yl)pyridin-2-yl)-2-oxo-1-phenyl-1,2,4,5,6,7-hexahydropyrazolo[1,5-a]pyridine-3-carboxamide]	< 5 nM	No inhibition	No inhibition				
CC(C)C(=O)N1CCC(c2cc(-c3ccc(NC(=O)c4c5n(n(-c6ccccc6)c4=O)CCOC5)cc3F)c3c(N)ncnn23)CC1 [example 8, N-(4-(4-amino-7-(1-isobutyrylpiperidin-4-yl)pyrrolo[2,1-f][1,2,4]triazin-5-yl)-3-fluorophenyl)-2-oxo-1-phenyl-2,4,6,7-tetrahydro-1H-pyrazolo[5,1-c][1,4]oxazine-3-carboxamide]	< 5 nM	No inhibition		5 to 50 nM			
CC(C)C(=O)N1CCC(c2cc(-c3ccc(NC(=O)c4c5n(n(-c6ccccc6)c4=O)CCCC5)cc3F)c3c(N)ncnn23)CC1 [example 16, N-(4-(4-amino-7-(1-isobutyrylpiperidin-4-yl)pyrrolo[2,1-f][1,2,4]triazin-5-yl)-3-fluorophenyl)-2-oxo-1-phenyl-1,2,4,5,6,7-hexahydropyrazolo[1,5-a]pyridine-3-carboxamide]	< 5 nM		No inhibition	5 to 50 nM	1.26	276	
Nc1ncnn2c1c(-c1ccc(NC(=O)c3c4n(n(-c5ccccn5)c3=O)CCCC4)cc1F)cc2[C@H]1CC[C@H](O)CC1 [example 30, N-(4-(4-amino-7-((1r,4r)-4-hydroxycyclohexyl)pyrrolo[2,1-f][1,2,4]triazin-5-yl)-3-fluorophenyl)-2-oxo-1-(pyridin-2-yl)-1,2,4,5,6,7-hexahydropyrazolo[1,5-a]pyridine-3-carboxamide]	< 5 nM		No inhibition	< 5 nM	0.836	1.58	
CC(C)C(=O)N1CCC(c2cc(-c3ccc(NC(=O)c4c5n(n(-c6ccccc6)c4=O)CCOC5)cc3)c3c(N)ncnn23)CC1 [example 3, N-(4-(4-amino-7-(1-isobutyrylpiperidin-4-yl)pyrrolo[2,1-f][1,2,4]triazin-5-yl)phenyl)-2-oxo-1-phenyl-2,4,6,7-tetrahydro-1H-pyrazolo[5,1-c][1,4]oxazine-3-carboxamide]	< 5 nM		No inhibition	5 to 50 nM	0.801	4.40	
Nc1ncnn2c(C3CCC(O)CC3)cc(-c3ccc(NC(=O)c4c5n(n(-c6ccccc6)c4=O)CCCC5)nc3)c12 (stereo not shown) [example 21, N-(5-(4-amino-7-(4-hydroxycyclohexyl)pyrrolo[2,1-f][1,2,4]triazin-5-yl)pyridin-2-yl)-2-oxo-1-phenyl-1,2,4,5,6,7-hexahydropyrazolo[1,5-a]pyridine-3-carboxamide]	< 5 nM	No inhibition	No inhibition				No inhibition
